Reference: ChEMBL document CHEMBL1201862, “PubChem BioAssay data set” (2004)
Active and inactive are the calls of the source.

How the values were obtained:
[1] = molecular target: T1, Sentrin-specific protease 8 (Homo sapiens, UniProt Q96LD8); format: functional;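 note: luminescence read-out of SENP8 inhibition, dose-response confirmation following an ultra-high-throughput screen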
T1 sequence (Q96LD8 whole entry): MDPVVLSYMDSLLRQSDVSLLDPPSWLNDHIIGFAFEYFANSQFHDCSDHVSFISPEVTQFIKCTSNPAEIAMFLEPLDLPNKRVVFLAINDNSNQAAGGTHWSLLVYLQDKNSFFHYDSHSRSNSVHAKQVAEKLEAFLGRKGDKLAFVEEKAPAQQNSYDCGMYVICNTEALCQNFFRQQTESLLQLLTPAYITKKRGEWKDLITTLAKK

[2] = molecular target: T2, Sentrin-specific protease 7 (Homo sapiens, UniProt Q9BQF6); format: functional;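 note: Luminescence-based dose-response confirmation of ultra-high-throughput screening hits, measuring inhibition of SENP7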
T2 sequence (Q9BQF6 whole entry): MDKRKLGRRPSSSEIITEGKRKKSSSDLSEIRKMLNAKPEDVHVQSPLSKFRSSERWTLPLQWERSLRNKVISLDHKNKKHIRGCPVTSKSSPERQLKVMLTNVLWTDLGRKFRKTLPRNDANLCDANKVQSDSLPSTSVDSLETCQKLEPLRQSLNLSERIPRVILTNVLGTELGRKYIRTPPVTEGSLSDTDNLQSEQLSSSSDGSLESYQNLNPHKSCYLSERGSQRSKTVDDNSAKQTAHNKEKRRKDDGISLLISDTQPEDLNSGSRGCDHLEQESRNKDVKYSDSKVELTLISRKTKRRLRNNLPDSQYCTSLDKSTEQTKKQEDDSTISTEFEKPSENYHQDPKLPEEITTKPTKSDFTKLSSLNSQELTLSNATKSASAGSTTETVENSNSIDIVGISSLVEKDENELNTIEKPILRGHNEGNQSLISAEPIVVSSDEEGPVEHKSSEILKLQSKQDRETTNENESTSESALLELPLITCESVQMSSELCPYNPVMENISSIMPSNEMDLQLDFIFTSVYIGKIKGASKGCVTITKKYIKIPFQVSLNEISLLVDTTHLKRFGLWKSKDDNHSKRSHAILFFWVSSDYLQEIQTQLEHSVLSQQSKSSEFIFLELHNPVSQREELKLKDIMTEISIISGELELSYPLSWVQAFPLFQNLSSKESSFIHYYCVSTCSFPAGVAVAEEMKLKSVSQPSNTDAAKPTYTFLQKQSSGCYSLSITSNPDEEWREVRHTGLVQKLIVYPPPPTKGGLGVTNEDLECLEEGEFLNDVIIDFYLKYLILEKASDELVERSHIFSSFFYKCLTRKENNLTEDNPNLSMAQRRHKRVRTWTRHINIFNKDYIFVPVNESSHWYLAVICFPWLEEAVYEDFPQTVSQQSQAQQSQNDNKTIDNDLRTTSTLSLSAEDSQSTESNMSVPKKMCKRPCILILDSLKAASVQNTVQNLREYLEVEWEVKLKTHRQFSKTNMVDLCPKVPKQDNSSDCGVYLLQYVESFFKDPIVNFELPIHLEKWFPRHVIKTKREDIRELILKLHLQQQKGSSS

Caspase-3 = molecular target: T3, Caspase-3 (Homo sapiens, UniProt P42574); format: functional;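 note: Dose-response selectivity test against caspase-3 for candidate inhibitors of sentrin-specific proteases (SENPs)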
T3 sequence (P42574 whole entry): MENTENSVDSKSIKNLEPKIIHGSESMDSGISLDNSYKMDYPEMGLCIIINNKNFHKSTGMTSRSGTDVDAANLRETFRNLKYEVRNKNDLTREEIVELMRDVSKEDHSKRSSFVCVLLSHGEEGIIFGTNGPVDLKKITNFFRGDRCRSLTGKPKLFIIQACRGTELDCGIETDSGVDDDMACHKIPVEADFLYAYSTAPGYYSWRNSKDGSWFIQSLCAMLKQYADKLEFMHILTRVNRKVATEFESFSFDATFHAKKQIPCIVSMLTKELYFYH

[3] = molecular target: T4, Sentrin-specific protease 6 (Homo sapiens, UniProt Q9GZR1); format: functional;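 note: Luminescence-based dose-response confirmatory assay of SENP6 inhibition, following up an ultra-high-throughput screen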
T4 sequence (Q9GZR1 whole entry): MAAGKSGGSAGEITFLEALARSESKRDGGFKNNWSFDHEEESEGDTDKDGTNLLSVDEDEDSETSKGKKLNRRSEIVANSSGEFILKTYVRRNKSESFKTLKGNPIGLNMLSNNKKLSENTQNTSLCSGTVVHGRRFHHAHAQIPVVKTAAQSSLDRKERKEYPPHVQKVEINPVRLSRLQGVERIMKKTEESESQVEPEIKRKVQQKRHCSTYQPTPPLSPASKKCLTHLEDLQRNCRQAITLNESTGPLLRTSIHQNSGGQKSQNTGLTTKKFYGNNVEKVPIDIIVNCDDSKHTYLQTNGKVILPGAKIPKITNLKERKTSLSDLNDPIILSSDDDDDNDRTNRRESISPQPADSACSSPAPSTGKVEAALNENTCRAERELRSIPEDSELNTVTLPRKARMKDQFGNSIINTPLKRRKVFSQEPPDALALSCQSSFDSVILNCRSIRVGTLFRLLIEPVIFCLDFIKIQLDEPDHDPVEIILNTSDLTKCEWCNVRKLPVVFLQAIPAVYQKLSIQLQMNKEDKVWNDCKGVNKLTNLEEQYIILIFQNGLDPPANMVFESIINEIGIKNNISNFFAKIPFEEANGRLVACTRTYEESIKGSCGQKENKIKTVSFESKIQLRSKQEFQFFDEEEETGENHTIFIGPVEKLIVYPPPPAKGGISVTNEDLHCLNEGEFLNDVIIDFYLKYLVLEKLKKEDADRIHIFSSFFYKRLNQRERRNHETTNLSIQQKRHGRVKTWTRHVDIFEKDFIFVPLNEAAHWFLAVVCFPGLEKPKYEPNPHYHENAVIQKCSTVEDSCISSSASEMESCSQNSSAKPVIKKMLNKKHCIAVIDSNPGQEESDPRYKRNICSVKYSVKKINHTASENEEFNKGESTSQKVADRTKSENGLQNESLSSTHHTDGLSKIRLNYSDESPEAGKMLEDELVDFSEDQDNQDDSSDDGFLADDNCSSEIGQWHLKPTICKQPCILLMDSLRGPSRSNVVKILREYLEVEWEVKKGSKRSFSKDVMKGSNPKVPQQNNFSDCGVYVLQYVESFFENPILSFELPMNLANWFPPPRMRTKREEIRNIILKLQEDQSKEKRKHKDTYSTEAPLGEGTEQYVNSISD

[4] = molecular target: T5, Long-chain-fatty-acid--AMP ligase FadD28 (Mycobacterium tuberculosis, UniProt P9WQ59); assay: Fluorescence polarization aasay to screen for inhibitors that compete for the binding of FadD28 to a bisubstrate Measured in Biochemical System Using Plate Reader - 2147-01_Inhibitor_Dose_CherryPick_Activity.; format: functional, Mycobacterium tuberculosis H37Rv
T5 sequence (P9WQ59 whole entry): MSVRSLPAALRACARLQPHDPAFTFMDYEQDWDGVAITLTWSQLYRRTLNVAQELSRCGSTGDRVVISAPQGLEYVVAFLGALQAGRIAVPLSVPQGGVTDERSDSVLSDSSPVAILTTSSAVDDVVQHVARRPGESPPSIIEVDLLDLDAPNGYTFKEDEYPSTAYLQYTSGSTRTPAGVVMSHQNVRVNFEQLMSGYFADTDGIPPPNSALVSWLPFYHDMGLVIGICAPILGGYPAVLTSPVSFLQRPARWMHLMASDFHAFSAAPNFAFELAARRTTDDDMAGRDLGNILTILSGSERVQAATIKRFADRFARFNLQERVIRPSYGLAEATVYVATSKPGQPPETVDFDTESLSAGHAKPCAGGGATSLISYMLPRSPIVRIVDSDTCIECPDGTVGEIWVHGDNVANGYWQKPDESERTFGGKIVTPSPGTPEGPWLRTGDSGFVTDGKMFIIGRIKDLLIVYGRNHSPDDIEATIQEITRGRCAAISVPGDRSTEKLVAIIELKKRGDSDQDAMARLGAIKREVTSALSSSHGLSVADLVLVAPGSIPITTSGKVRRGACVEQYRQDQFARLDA

cells [5] = format: functional, cell-based
[6] = fluconazole-exposed Candida albicans growth modulators – fluorescence, retest, confirmation (AID 2467); format: functional, cell-based
[7] = NIH-3T3 fibroblast cytotoxicity, dose response, cytotoxicity control, cell-based, fluorescence, Alamar Blue, secondary assay (AID 2327); format: functional;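 note: NIH-3T3 mouse fibroblasts cultured with fluconazole at 8 µg/mL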
cells [8] = format: functional, cell-based; remark: listed apart in the source
[9] = molecular target: Glucose-6-phosphate 1-dehydrogenase (Homo sapiens, UniProt P11413); assay: inhibition of Homo sapiens G6PD, dose series – biochemical, fluorescence, selectivity assay for P. falciparum G6PD inhibitor project, dose response (AID 504792); format: functional
[10] = A549 cell cytotoxicity, dose response, cytotoxicity control, plate reader, cherry-pick, antagonist series (AID 743412); format: functional, cell-based
[11] = blockers of bursicon-stimulated LGR2 cAMP reporter – cell-based, HEK293, CRE-luciferase reporter, cherry pick, set 2, dose response (AID 743343); format: functional;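 note: transfected cells were stimulated with diluted bursicon conditioned medium after compound addition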
[12] = Luminescence Cell-Based Dose Confirmation HTS to Identify Inhibitors of Platelet Dense Granule Release. [Related pubchem assays: 1663 (Primary HTS), 1678 (Summary of Project)]; format: functional
[13] = blockade of melanocortin 4 receptor signaling – cell-based, plate reader, cherry pick, counter-screen for LGR2 antagonist project, dose response (AID 743444); format: functional;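 note: transfected HEK 293 cells stimulated with alpha-MSH peptide; potency of inhibitors of the alpha-MSH evoked signal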
[14] = viability loss in HEK293 cells – cell-based, plate reader, cherry-picked samples, cytotoxicity control, dose response (AID 743446); format: functional
[15] = molecular target: Luciferin 4-monooxygenase (Photinus pyralis, UniProt P08659); assay: inhibition of purified Photinus pyralis luciferase – biochemical, luminescence, dose response (AID 1891)
cells [16] = format: functional
[17] = Trypanosoma cruzi growth suppression in host cells – NIH3T3 host cells, beta-gal luminescence, confirmation (AID 2044); format: functional, cell-based;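 note: intracellular parasites grown in NIH/3T3 mouse fibroblasts as host cells; luminescent beta-galactosidase reporter signal from transgenic T. cruzi replicating inside host cells; inhibitors lower the luminescence signal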
INS1 = assay: INS-1E survival protection against cytokine death – cell-based, luminescence, retest, dose response (AID 449756); format: functional; details: Rattus norvegicus;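 note: cell death triggered by IL-1 beta plus TNF-alpha plus IFN-gamma mixture; protective hits raise ATP signal compared with cytokine alone wells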
[18] = THP-1 cell cytotoxicity, dose response, cytotoxicity control for non-replicating M. tuberculosis project (AID 489025); format: functional
[19] = NIH3T3 cell viability loss – ATP luminescence, mouse fibroblasts, counter-screen, dose response (AID 2010); format: functional, cell-based;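 note: cells exposed to compound for about 90 hours before reading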
[20] = reduced cellular PGC1a acetyl-lysine signal – cell-based, cherry-picked samples, dose response (AID 720514); format: functional;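 note: potency may reflect raised or lowered acetylation signal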

Chain of Glucose-6-phosphate 1-dehydrogenase (P11413 whole entry): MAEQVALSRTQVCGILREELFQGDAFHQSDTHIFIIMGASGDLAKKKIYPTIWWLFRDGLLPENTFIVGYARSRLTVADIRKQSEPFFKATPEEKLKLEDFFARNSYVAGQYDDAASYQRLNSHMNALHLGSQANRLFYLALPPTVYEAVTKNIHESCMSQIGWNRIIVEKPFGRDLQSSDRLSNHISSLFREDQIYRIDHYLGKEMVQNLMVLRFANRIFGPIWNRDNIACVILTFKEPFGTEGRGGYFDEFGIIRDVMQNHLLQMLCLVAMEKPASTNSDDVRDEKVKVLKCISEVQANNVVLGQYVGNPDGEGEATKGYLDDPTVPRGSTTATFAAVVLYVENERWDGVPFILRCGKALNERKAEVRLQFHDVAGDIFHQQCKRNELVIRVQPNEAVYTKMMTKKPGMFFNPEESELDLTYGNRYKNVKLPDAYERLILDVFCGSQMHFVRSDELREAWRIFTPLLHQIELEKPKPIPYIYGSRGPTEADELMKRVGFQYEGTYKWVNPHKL
Chain of Luciferin 4-monooxygenase (P08659 whole entry): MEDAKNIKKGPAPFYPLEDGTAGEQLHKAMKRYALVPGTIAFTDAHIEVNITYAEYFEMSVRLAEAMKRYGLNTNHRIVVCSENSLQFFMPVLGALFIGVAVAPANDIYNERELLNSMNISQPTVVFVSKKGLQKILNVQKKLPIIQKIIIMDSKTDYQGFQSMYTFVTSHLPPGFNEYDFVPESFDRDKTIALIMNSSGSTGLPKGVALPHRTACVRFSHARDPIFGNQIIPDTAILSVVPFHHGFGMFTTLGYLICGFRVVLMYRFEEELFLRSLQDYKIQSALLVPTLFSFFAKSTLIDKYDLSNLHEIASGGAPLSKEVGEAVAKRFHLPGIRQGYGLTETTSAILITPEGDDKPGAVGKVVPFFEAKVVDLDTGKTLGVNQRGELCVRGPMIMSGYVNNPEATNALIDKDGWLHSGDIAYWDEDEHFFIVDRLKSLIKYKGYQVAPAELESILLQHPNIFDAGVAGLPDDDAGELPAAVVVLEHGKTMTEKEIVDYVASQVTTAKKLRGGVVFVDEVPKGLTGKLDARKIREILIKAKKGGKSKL

Which IC50 [1] does the source give for `Oc1ccccc1-c1csc(-c2ccccc2)n1` here?
The IC50 was 10.7 µM (active).

What about the IC50 [2] of the same molecule?
Its IC50 is 3.44 µM (active).

And the IC50 (Caspase-3)?
Its IC50 is 16.2 µM (active).

What about the IC50 [3] of the same molecule?
The IC50 was 7.62 µM (active).

Which AC50 [4] does the source give for `O=C(O)CCC(=O)Nc1ccc(C(=O)OCC(=O)c2ccc(Cl)cc2Cl)cc1` here?
Its AC50 is > 100 µM (inactive).

What does the source list for `COc1ccccc1NC(c1cccnc1)c1ccc2cccnc2c1O` (centres undefined)?
EC50 (cells [5]): 116 µM (active); EC50 [6]: > 38 µM (not active); EC50 [7]: > 160 µM (inconclusive); EC50 (cells [8]): > 350 µM (not active)

With `CC1(OC(=O)C2CCCC2)C(=O)C=C2C=C(c3ccsc3)N(Cc3ccc4c(c3)OCO4)C=C2C1=O` (centres undefined) as the molecule, how does the IC50 [9] read?
The IC50 was > 80 µM (inactive).

With `CCN(CC)S(=O)(=O)c1cc(C(=O)OCC(=O)Nc2cccc(Br)c2)ccc1F` as the molecule, how does the AC50 [4] read?
Its AC50 is 6.81 µM (active).

Which AC50 [10] does the source give for `COc1ccc(-c2cc(-c3ccccc3)no2)cc1` here?
The AC50 was 45.1 µM (active).

What about the AC50 [11] of the same molecule?
The AC50 was 5.01 µM (active).

What about the EC50 [12] of the same molecule?
Its EC50 is 10.3 µM (active).

And the AC50 [13]?
Its AC50 is 3.84 µM (active).

And the AC50 [14]?
The AC50 was > 52 µM (inactive).

What about the EC50 [15] of the same molecule?
The EC50 was 0.895 µM (active).

For `O=C(Nc1ccc(S(=O)(=O)N2CCOCC2)cc1)c1ccc([N+](=O)[O-])s1`, which IC50 (cells [16]) is on record?
Its IC50 is 0.7 µM (active).

And the EC50 [17]?
The EC50 was 0.394 µM (active).

And the AC50 (INS1)?
The AC50 was 7.03 µM (active).

And the CC50 [18]?
The CC50 was 23.2 µM (active).

And the EC50 [19]?
Its EC50 is 42.8 µM (active).

For `COc1ccc(C#Cc2ccc([C@H]3[C@@H](CO)N4CCCCN(C(=O)Nc5ccc(F)cc5)C[C@H]34)cc2)cc1`, which AC50 [20] is on record?
The AC50 was 13.9 µM (active).

With `C=CCc1ccccc1OCC(=O)N/N=C/c1ccccc1OCC` as the molecule, how does the IC50 [9] read?
The IC50 was > 80 µM (inactive).
